# Experimental data as given in ChEMBL document CHEMBL3639129, “Compounds having CRTH2 antagonist activity” (2013).
# Target: T1, Prostaglandin D2 receptor 2 (Homo sapiens, UniProt Q9Y5Y4)
# T1 sequence (Q9Y5Y4 whole entry): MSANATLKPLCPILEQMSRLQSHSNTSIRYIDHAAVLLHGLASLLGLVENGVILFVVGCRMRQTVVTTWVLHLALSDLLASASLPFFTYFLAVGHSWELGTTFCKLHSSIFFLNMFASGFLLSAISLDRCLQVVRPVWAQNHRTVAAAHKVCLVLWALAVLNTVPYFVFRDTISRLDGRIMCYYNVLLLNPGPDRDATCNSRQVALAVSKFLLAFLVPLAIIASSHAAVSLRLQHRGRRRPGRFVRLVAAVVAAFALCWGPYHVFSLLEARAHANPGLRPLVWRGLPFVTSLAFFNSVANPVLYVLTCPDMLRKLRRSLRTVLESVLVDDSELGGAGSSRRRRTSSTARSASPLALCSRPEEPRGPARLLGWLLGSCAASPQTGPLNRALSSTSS
# Assay: Radioligand Binding Assay: Radioligand binding assay using CRTH2.
row,Ki [nM],SMILES
1,2,Cc1c(Cc2cccnc2S(=O)(=O)c2ccc(F)cc2)c2cc(F)ccc2n1CC(=O)O
2,7,Cc1c(Cc2cccnc2S(=O)(=O)c2ccc(Cl)cc2)c2cc(F)ccc2n1CC(=O)O
